Measured values reported in patent US12187663B2, “Thyromimetics with a biphenylmethane scaffold and their use” (INTERNATIONAL SOCIETY FOR DRUG DEVELOPMENT S.R.L., priority 2019, dated 2025).

How the values were obtained:
[1] = tested on: AMPK; test: Western blot of phosphorylated AMPK in HepG2 cells; format: cell-based, Human; conditions: twenty-four hours of treatment, dose dependent
Procedure: Human hepatocellular carcinoma cells (HepG2), obtained from American Type Culture Collection (Manassas, Va., USA), were cultured in low-glucose (LG) Dulbecco's modified Eagle's medium (DMEM) ([…], Invitrogen, Carlsbad, Calif., USA) or high-glucose (HG) DMEM ([…]) supplemented with 10% fetal bovine serum (FBS) and […] penicillin/streptomycin in an atmosphere of 5% CO2 at 37° C. These cells were then treated with tested compounds at various concentrations for 24 h. After treatments, cells were lysed in a buffer containing 20 mM Tris-HCl (pH 7.5), 0.9% NaCl, 0.2% Triton X-100, and 1% of the protease inhibitor cocktail (Sigma-Aldrich, Milan, Italy) and then stored at −80° C. for further western blot analysis. All the analyses were conducted on cells between the third and the sixth passage.
Proteins (20-30 μg) were separated on CriterionTGX™ gel (4-20%) and transferred on Immuno-PVDF membrane (Biorad, Milan, Italy) for 1 h. Blots were incubated with the primary antibody at 4° C. overnight. All the polyclonal antibodies for the protein of interest were purchased from Santa Cruz Biotechnology, Inc., Dallas, TX, USA. Then, blots were washed 3 times for 10 minutes with 1×TBS, 0.1% Tween® 20 and incubated for 1 h with secondary antibody (peroxidase-coupled anti rabbit in 1×TBS, 0.1% Tween®20). […] Band densitometric analysis was performed using Image Lab Software (Biorad, Milan, Italy).
The liver is a major organ responsible for most functions of cellular metabolism and a mediator between dietary and endogenous sources of energy for extrahepatic tissues. In this context, AMPK constitutes an intrahepatic energy sensor regulating physiological energy dynamics by limiting anabolism and stimulating catabolism, thus increasing ATP availability. Once activated, AMPK phosphorylates its downstream substrates to reduce ATP-consuming anabolic pathways, including cholesterol, fatty acid, and triacylglycerol synthesis, and increases ATP-generating catabolic pathways, including fatty acid oxidation and lipolysis. […]

[2] = tested on: HepG2 cells; test: Glycerol release (lipolysis); format: cell-based, Human; conditions: 24 hours treatment, 1 and 10 μM
Procedure: Samples of the media collected from HepG2 cells used to test lipid accumulation by Oil Red O staining (as detailed above), were assayed for glycerol levels using the Glycerol Assay Kit (Cell Based-ab133130-Abcam).

[3] = Panel of early-toxicity assays (in vitro ADME-TOX profiling); conditions: 10 μM of each compound
Procedure: FIG. 5. ADME-TOX profiling In order to assess the ADME-TOX profile of new synthetized compounds a full panel of in vitro assays was performed. Cytotoxic effects were evaluated on 4 different cell lines (U2-OS, HEK293, hTERT, MCF-7) at 24 h and 48 h after treatment with new compounds. Cardiac toxicity was assessed evaluating the inhibition effect of compounds on the hERG ion-channel, an important anti-target involved in heart functionalities. Metabolic interference was evaluated testing inhibitory effects of new compounds on four isoforms of CYP450 (CYP2C9, CYP2C19, CYP2D6, CYP3A4). In order to assess off-target liabilities, the inhibitory effects have been assessed against several well-known off-targets. […] The data were collected and analyzed in the form of a traffic-light system using criteria shown below.
Test compounds (20 nL of 10 mM top concentration in 100% v/v DMSO), positive control (PC; Valinomycin with final concentration of 10 μM and 0.1% v/v DMSO) and NC (final 0.1% v/v DMSO) were added in an empty polystyrene 384-well cell culture microtiter plate using the Echo 550 Liquid Handler and stored at room temperature before cell's seeding. […] At 24 h and 48 h post-treatment, 20 μL/well of CTG detection mix were added, and plates were read using an EnVision Multilabel 2103 Reader after a 10-min incubation in the dark. […]

| SMILES | expression of p-AMPK [1] | glycerol release / lipolysis [2] | early-toxicity / liability profile (% inhibition heat map) [3] |
| --- | --- | --- | --- |
| CC(=O)Nc1ccc(Cc2c(C)cc(OCC(=O)O)cc2C)cc1C(C)C [TG68, 2-(4-(4-acetamido-3-isopropylbenzyl)-3,5-dimethylphenoxy)acetic acid] | significantly (p<0.05) increased | induce lipolysis | safer profile |
| Cc1cc(OCC(=O)O)cc(C)c1Cc1ccc(N)c(C(C)C)c1 [IS25, 2-(4-(4-amino-3-isopropylbenzyl)-3,5-dimethylphenoxy)acetic acid] | significantly (p<0.05) increased | induce lipolysis | safer profile |
